Test results reported in US20070010402A1, “Novel herbicides, usage thereof, novel thienopyrimidine derivatives, intermediates of the same, and process for production thereof” (NIHON NOHYAKU CO., LTD.,, priority 2002, published 2007).

How the values were obtained:
Assay type in all cases: in vivo
Echinochloa oryzicola = assay: Submerged foliar treatment test (Test Example 3); conditions: water depth 3 cm, cotyledon to 1-leaf stage, wettable powder, active ingredient 10 g/a, 28th day from the treatment
Protocol: (§1) The herbicidal effect was evaluated in terms of herbicidal rate obtained from the following equation: Herbicidal rate (%)=[1−(Weight of weeds above the ground in a treated plot)/(Weight of weeds above the ground in a non-treated plot)]×100
(§2) and was expressed by herbicidal index according to the following criteria.
(§3) Alluvial soil from a paddy field was put in a resin-made vat having an area of 200 cm^2. After fertilization, seeds of Echinochloa oryzicola, Rotala indica and Scirpus juncoides were cast on the soil and uniformly covered with the soil, and water was poured onto the soil to keep a water depth of 3 cm. Then, cultivation was continued in a greenhouse, and when the weeds to be tested reached the cotyledon stage to 1-leaf stage, the wettable powder obtained in Formulation Example 1 was diluted with water and a predetermined amount thereof was added dropwise uniformly to the weeds by means of a pipette to give 10 g of the active ingredient per an are. Thereafter, cultivation was further continued in the greenhouse, and the herbicidal effect was examined on the 28th day from the treatment. The results obtained are shown in Table 9 (the compound numbers in Table 9 correspond to those in Tables 1 to 6).

Scirpus juncoides = assay: Submerged foliar treatment test (Test Example 3); conditions: water depth 3 cm, cotyledon to 1-leaf stage, wettable powder, active ingredient 10 g/a, 28th day from the treatment
Protocol: as §1, §2, §3

Rotala indica = assay: Submerged foliar treatment test (Test Example 3); conditions: water depth 3 cm, cotyledon to 1-leaf stage, wettable powder, active ingredient 10 g/a, 28th day from the treatment
Protocol: as §1, §2, §3

Echinochloa crus-galli = assay: Field foliar treatment test (Test Example 1); conditions: foliar spray at 1.0- to 2.0-leaf stage, wettable powder, active ingredient 10 g/a, 21st day from the treatment
Protocol: (§4) Alluvial soil from a field was put in a resin-made vat having an area of 200 cm^2. After fertilization, the seeds of Echinochloa crus-galli, Brassica juncea, and Ipomoea purpurea were cast on the soil and uniformly covered with the soil. Then, cultivation was continued in a greenhouse, and when the weeds to be tested reached the 1.0- to 2.0-leaf stage, the wettable powder obtained in Formulation Example 1 was diluted with water and a predetermined amount thereof was sprayed uniformly to the weeds by means of a small-sized power pressure spray to give 10 g of the active ingredient per an are. Thereafter, cultivation was further continued in the greenhouse, and the herbicidal effect was examined on the 21st day from the treatment. The results obtained are shown in Table 7 (the compound numbers in Table 7 correspond to those in Table 1 to 6). The herbicidal effect was evaluated in terms of herbicidal rate obtained from the following equation: Herbicidal rate (%)=[1−(Weight of weeds above the ground in a treated plot)/(Weight of weeds above the ground in a non-treated plot)]×100 and was expressed by herbicidal index according to the following criteria. [table]

Ipomoea purpurea = assay: Field foliar treatment test (Test Example 1); conditions: foliar spray at 1.0- to 2.0-leaf stage, wettable powder, active ingredient 10 g/a, 21st day from the treatment
Protocol: as §4

Brassica juncea = assay: Field foliar treatment test (Test Example 1); conditions: foliar spray at 1.0- to 2.0-leaf stage, wettable powder, active ingredient 10 g/a, 21st day from the treatment
Protocol: as §4

Compound: CCCOc1nc(-c2ccccc2Cl)c2cc(C)sc2n1 [6-56]
- Herbicidal effect Echinochloa oryzicola (herbicidal index) (Echinochloa oryzicola): 5 (91 to 100)
- Herbicidal effect Scirpus juncoides (herbicidal index) (Scirpus juncoides): 4 (71 to 90)
- Herbicidal effect Rotala indica (herbicidal index) (Rotala indica): 5 (91 to 100)

Compound: CCCCCOc1nc(-c2ccccc2C)c2cc(C)sc2n1 [6-47]
- Herbicidal effect Echinochloa oryzicola (herbicidal index) (Echinochloa oryzicola): 4 (71 to 90)
- Herbicidal effect Scirpus juncoides (herbicidal index) (Scirpus juncoides): 1 (6 to 30)
- Herbicidal effect Rotala indica (herbicidal index) (Rotala indica): 3 (51 to 70)

Compound: Cc1cc2c(-c3cccc(C(F)(F)F)c3)nc(OS(=O)(=O)CCCCl)nc2s1 [6-157]
- Herbicidal effect Echinochloa oryzicola (herbicidal index) (Echinochloa oryzicola): 5 (91 to 100)
- Herbicidal effect Scirpus juncoides (herbicidal index) (Scirpus juncoides): 4 (71 to 90)
- Herbicidal effect Rotala indica (herbicidal index) (Rotala indica): 5 (91 to 100)

Compound: Cc1cc2c(-c3cccc(Br)c3)nc(OCC(C)(C)C)nc2s1 [6-60]
- Herbicidal effect Echinochloa oryzicola (herbicidal index) (Echinochloa oryzicola): 5 (91 to 100)
- Herbicidal effect Scirpus juncoides (herbicidal index) (Scirpus juncoides): 5 (91 to 100)
- Herbicidal effect Rotala indica (herbicidal index) (Rotala indica): 5 (91 to 100)

Compound: Cc1cc2c(-c3cccc(SC(F)(F)F)c3)nc(OS(C)(=O)=O)nc2s1 [6-164]
- Herbicidal effect Echinochloa oryzicola (herbicidal index) (Echinochloa oryzicola): 5 (91 to 100)
- Herbicidal effect Scirpus juncoides (herbicidal index) (Scirpus juncoides): 4 (71 to 90)
- Herbicidal effect Rotala indica (herbicidal index) (Rotala indica): 5 (91 to 100)

Compound: Cc1cc2c(-c3cccc(SC(F)(F)F)c3)nc(OCC(F)F)nc2s1 [6-116]
- Herbicidal effect Echinochloa oryzicola (herbicidal index) (Echinochloa oryzicola): 5 (91 to 100)
- Herbicidal effect Scirpus juncoides (herbicidal index) (Scirpus juncoides): 4 (71 to 90)
- Herbicidal effect Rotala indica (herbicidal index) (Rotala indica): 5 (91 to 100)

Compound: CCOc1nc(-c2cccc(OC(F)(F)F)c2)c2cc(C)sc2n1 [6-34]
- Herbicidal effect Echinochloa oryzicola (herbicidal index) (Echinochloa oryzicola): 5 (91 to 100)
- Herbicidal effect Scirpus juncoides (herbicidal index) (Scirpus juncoides): 5 (91 to 100)
- Herbicidal effect Rotala indica (herbicidal index) (Rotala indica): 5 (91 to 100)

Compound: CCCOc1nc(-c2cccc(C(F)(F)F)c2)c2cc(CC)sc2n1 [6-8]
- Herbicidal effect Echinochloa oryzicola (herbicidal index) (Echinochloa oryzicola): 5 (91 to 100)
- Herbicidal effect Scirpus juncoides (herbicidal index) (Scirpus juncoides): 4 (71 to 90)
- Herbicidal effect Rotala indica (herbicidal index) (Rotala indica): 4 (71 to 90)

Compound: Cc1cc2c(-c3cccc(SC(F)F)c3)nc(OCC(F)(F)F)nc2s1 [6-127]
- Herbicidal effect Echinochloa oryzicola (herbicidal index) (Echinochloa oryzicola): 5 (91 to 100)
- Herbicidal effect Scirpus juncoides (herbicidal index) (Scirpus juncoides): 4 (71 to 90)
- Herbicidal effect Rotala indica (herbicidal index) (Rotala indica): 5 (91 to 100)

Compound: Cc1cc2c(-c3ccccc3C(F)(F)F)nc(Cl)nc2s1 [Compound No. 5-3]
- Herbicidal effect Echinochloa oryzicola (herbicidal index) (Echinochloa oryzicola): 5 (91 to 100)
- Herbicidal effect Scirpus juncoides (herbicidal index) (Scirpus juncoides): 3 (51 to 70)
- Herbicidal effect Rotala indica (herbicidal index) (Rotala indica): 5 (91 to 100)

Compound: Cc1cc2c(-c3cccc(OC(F)F)c3)nc(OC(C)C)nc2s1 [6-41]
- Herbicidal effect Echinochloa oryzicola (herbicidal index) (Echinochloa oryzicola): 5 (91 to 100)
- Herbicidal effect Scirpus juncoides (herbicidal index) (Scirpus juncoides): 4 (71 to 90)
- Herbicidal effect Rotala indica (herbicidal index) (Rotala indica): 5 (91 to 100)

Compound: CC(=O)OC1COCC1Oc1nc(-c2cccc(C(F)(F)F)c2)c2cc(C)sc2n1 (mixture of isomers) [6-188]
- Herbicidal effect Echinochloa oryzicola (herbicidal index) (Echinochloa oryzicola): 5 (91 to 100)
- Herbicidal effect Scirpus juncoides (herbicidal index) (Scirpus juncoides): 4 (71 to 90)
- Herbicidal effect Rotala indica (herbicidal index) (Rotala indica): 5 (91 to 100)

Compound: Cc1cc2c(-c3cccc(SC(F)(F)F)c3)nc(OC3CCCC3)nc2s1 [6-86]
- Herbicidal effect Echinochloa oryzicola (herbicidal index) (Echinochloa oryzicola): 5 (91 to 100)
- Herbicidal effect Scirpus juncoides (herbicidal index) (Scirpus juncoides): 4 (71 to 90)
- Herbicidal effect Rotala indica (herbicidal index) (Rotala indica): 5 (91 to 100)

Compound: CCOc1nc(-c2sccc2C)c2cc(C)sc2n1 [6-50]
- Herbicidal effect Echinochloa oryzicola (herbicidal index) (Echinochloa oryzicola): 3 (51 to 70)
- Herbicidal effect Scirpus juncoides (herbicidal index) (Scirpus juncoides): 3 (51 to 70)
- Herbicidal effect Rotala indica (herbicidal index) (Rotala indica): 4 (71 to 90)

Compound: Cc1cc2c(-c3cccc(C(F)(F)F)c3)nc(OC(C)C(C)C)nc2s1 (stereo not drawn) [6-72]
- Herbicidal effect Echinochloa oryzicola (herbicidal index) (Echinochloa oryzicola): 5 (91 to 100)
- Herbicidal effect Scirpus juncoides (herbicidal index) (Scirpus juncoides): 3 (51 to 70)
- Herbicidal effect Rotala indica (herbicidal index) (Rotala indica): 5 (91 to 100)

Compound: Cc1cc2c(-c3cccc(C(F)(F)F)c3)nc(S(C)(=O)=O)nc2s1 [6-174]
- Herbicidal effect Echinochloa oryzicola (herbicidal index) (Echinochloa oryzicola): 1 (6 to 30)
- Herbicidal effect Scirpus juncoides (herbicidal index) (Scirpus juncoides): 3 (51 to 70)
- Herbicidal effect Rotala indica (herbicidal index) (Rotala indica): 5 (91 to 100)

Compound: Cc1cc2c(Oc3cccc(C(F)(F)F)c3)nc(-n3ccc(C(F)(F)F)n3)nc2s1 [6-201]
- Herbicidal effect Echinochloa oryzicola (herbicidal index) (Echinochloa oryzicola): 5 (91 to 100)
- Herbicidal effect Scirpus juncoides (herbicidal index) (Scirpus juncoides): 3 (51 to 70)
- Herbicidal effect Rotala indica (herbicidal index) (Rotala indica): 5 (91 to 100)

Compound: Cc1cc2c(-c3cccc(Cl)c3)nc(OC3CCCC3)nc2s1 [6-54]
- Herbicidal effect Echinochloa oryzicola (herbicidal index) (Echinochloa oryzicola): 5 (91 to 100)
- Herbicidal effect Scirpus juncoides (herbicidal index) (Scirpus juncoides): 4 (71 to 90)
- Herbicidal effect Rotala indica (herbicidal index) (Rotala indica): 5 (91 to 100)

Compound: Cc1cc2c(-n3ccc(C(F)(F)F)n3)nc(-n3ccc(C(F)(F)F)n3)nc2s1 [6-200]
- Herbicidal effect Echinochloa oryzicola (herbicidal index) (Echinochloa oryzicola): 3 (51 to 70)
- Herbicidal effect Scirpus juncoides (herbicidal index) (Scirpus juncoides): 3 (51 to 70)
- Herbicidal effect Rotala indica (herbicidal index) (Rotala indica): 5 (91 to 100)

Compound: Cc1cc2c(-c3cccc(C(F)(F)F)c3)nc(Oc3ccccc3)nc2s1 [6-146]
- Herbicidal effect Echinochloa oryzicola (herbicidal index) (Echinochloa oryzicola): 4 (71 to 90)
- Herbicidal effect Scirpus juncoides (herbicidal index) (Scirpus juncoides): 2 (31 to 50)
- Herbicidal effect Rotala indica (herbicidal index) (Rotala indica): 5 (91 to 100)

Compound: Cc1cc2c(-c3ccccc3C(F)(F)F)nc(-n3ccnc3)nc2s1 [6-191]
- Herbicidal effect Echinochloa oryzicola (herbicidal index) (Echinochloa oryzicola): 5 (91 to 100)
- Herbicidal effect Scirpus juncoides (herbicidal index) (Scirpus juncoides): 3 (51 to 70)
- Herbicidal effect Rotala indica (herbicidal index) (Rotala indica): 5 (91 to 100)

Compound: CCOc1nc(-c2cccc(C(F)(F)F)c2)c2cc(C)sc2n1 [6-24]
- Herbicidal effect Echinochloa oryzicola (herbicidal index) (Echinochloa oryzicola): 5 (91 to 100)
- Herbicidal effect Scirpus juncoides (herbicidal index) (Scirpus juncoides): 4 (71 to 90)
- Herbicidal effect Rotala indica (herbicidal index) (Rotala indica): 5 (91 to 100)

Compound: Cc1cc2c(-c3cccc(C(F)(F)F)c3)nc(OS(=O)(=O)N(C)C)nc2s1 [6-160]
- Herbicidal effect Echinochloa oryzicola (herbicidal index) (Echinochloa oryzicola): 5 (91 to 100)
- Herbicidal effect Scirpus juncoides (herbicidal index) (Scirpus juncoides): 4 (71 to 90)
- Herbicidal effect Rotala indica (herbicidal index) (Rotala indica): 5 (91 to 100)

Compound: Cc1cc2c(-c3cccc(C(F)(F)F)c3)nc(N(C)C)nc2s1 [6-169]
- Herbicidal effect Echinochloa oryzicola (herbicidal index) (Echinochloa oryzicola): 5 (91 to 100)
- Herbicidal effect Scirpus juncoides (herbicidal index) (Scirpus juncoides): 2 (31 to 50)
- Herbicidal effect Rotala indica (herbicidal index) (Rotala indica): 5 (91 to 100)

Compound: Cc1cc2c(-c3cccc(OC(F)(F)F)c3)nc(Cl)nc2s1 [5-9]
- Herbicidal effect Echinochloa oryzicola (herbicidal index) (Echinochloa oryzicola): 5 (91 to 100)
- Herbicidal effect Scirpus juncoides (herbicidal index) (Scirpus juncoides): 4 (71 to 90)
- Herbicidal effect Rotala indica (herbicidal index) (Rotala indica): 5 (91 to 100)

Compound: Cc1cc2c(-c3cccc(C(F)(F)F)c3)nc(OS(=O)(=O)CCl)nc2s1 [6-149]
- Herbicidal effect Echinochloa oryzicola (herbicidal index) (Echinochloa oryzicola): 5 (91 to 100)
- Herbicidal effect Scirpus juncoides (herbicidal index) (Scirpus juncoides): 4 (71 to 90)
- Herbicidal effect Rotala indica (herbicidal index) (Rotala indica): 5 (91 to 100)

Compound: CCCOc1nc(-c2cccc(Cl)c2)c2cc(C)sc2n1 [6-52]
- Herbicidal effect Echinochloa oryzicola (herbicidal index) (Echinochloa oryzicola): 5 (91 to 100)
- Herbicidal effect Scirpus juncoides (herbicidal index) (Scirpus juncoides): 3 (51 to 70)
- Herbicidal effect Rotala indica (herbicidal index) (Rotala indica): 5 (91 to 100)

Compound: CCCOc1nc(-c2cccc(C(F)(F)F)c2)c2cc(C)sc2n1 [6-25]
- Herbicidal effect Echinochloa crus-galli (herbicidal index) (Echinochloa crus-galli): 4 (71 to 90)
- Herbicidal effect Ipomoea purpurea (herbicidal index) (Ipomoea purpurea): 5 (91 to 100)
- Herbicidal effect Brassica juncea (herbicidal index) (Brassica juncea): 5 (91 to 100)

Compound: Cc1cc2c(-c3cccc(C(F)(F)F)c3)nc(OC3CCOC3)nc2s1 (stereo not drawn) [6-184]
- Herbicidal effect Echinochloa crus-galli (herbicidal index) (Echinochloa crus-galli): 5 (91 to 100)
- Herbicidal effect Ipomoea purpurea (herbicidal index) (Ipomoea purpurea): 5 (91 to 100)
- Herbicidal effect Brassica juncea (herbicidal index) (Brassica juncea): 4 (71 to 90)
